# Assay results reported in PubChem BioAssay (NCI).
#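 In this assay, cells in 96-well plates receive the compound at five concentrations for 48 hours. Endpoints are linearly interpolated between the surrounding concentrations. TGI denotes the concentration required for complete inhibition of growth.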
# Tests used:
# Test in all cases: growth of human tumour cells (NCI), 48 h
# [1] = tested on: A549 NSCLC
# [2] = tested on: CAKI-1 renal
# [3] = tested on: COLO 205 colon
# [4] = tested on: LOX IMVI melanoma
# [5] = tested on: NCI-H460 lung
# [6] = tested on: NCI-H522 lung
# [7] = tested on: NCI/ADR-RES ovarian
# [8] = tested on: OVCAR-4 ovarian
# [9] = tested on: SF-268 CNS
# [10] = tested on: SF-295 CNS
# [11] = tested on: SK-MEL-28 melanoma
# [12] = tested on: SK-MEL-5 melanoma
# [13] = tested on: SNB-19 CNS
# [14] = tested on: SNB-75 CNS
# [15] = tested on: SR leukemia
# [16] = tested on: TK-10 renal
# [17] = tested on: U251 CNS
SMILES,TGI [1] [µM],TGI [2] [µM],TGI [3] [µM],TGI [4] [µM],TGI [5] [µM],TGI [6] [µM],TGI [7] [µM],TGI [8] [µM],TGI [9] [µM],TGI [10] [µM],TGI [11] [µM],TGI [12] [µM],TGI [13] [µM],TGI [14] [µM],TGI [15] [µM],TGI [16] [µM],TGI [17] [µM]
COc1cccc(N2C(=O)C3c4[nH]c5ccc(C)cc5c4C4CCC(C(C)(C)C)CC4C3C2=O)c1 (stereo not given),> 10,> 10,> 10,3.98,4.43,5.66,9.27,> 10,> 10,> 10,> 10,> 10,> 10,7.36,4.03,> 10,> 10
CCOc1cc(NC(C)=O)ccc1C(=O)NN1C(=O)C(Cl)C1c1ccco1 (stereo not given),38.8,30.9,38.3,13.1,35.1,25.5,> 100,33.3,35.1,30.5,63.5,27.9,32.1,26.7,35.9,31.3,–
CC[C@@H](/C=C\CCC(=O)C[C@H](O)CCC=C(C)C)O[Si](C(C)C)(C(C)C)C(C)C,> 100,> 100,> 100,> 100,> 100,> 100,> 100,> 100,> 100,> 100,> 100,> 100,> 100,> 100,> 100,> 100,> 100
CC(C)[C@@H]1ON1C(C)c1ccccc1 (stereo not given in full),> 100,34.7,> 100,> 100,> 100,> 100,> 100,> 100,> 100,> 100,> 100,> 100,> 100,> 100,> 100,> 100,> 100
CCN(c1cccc(NC(=S)Nc2ccccc2N(CC)c2cc(-c3ccccc3)no2)c1)c1cc(-c2ccccc2)no1,> 100,> 100,> 100,> 100,> 100,> 100,> 100,> 100,> 100,> 100,> 100,> 100,> 100,> 100,> 100,> 100,> 100
Cc1ccc2c(=O)cc(-c3ccc(-c4ccccc4)s3)[nH]c2n1,> 100,> 100,> 100,> 100,> 100,> 56.7,> 100,> 100,> 100,99.5,> 100,> 39.7,> 100,> 100,8.35,> 91.4,> 100
O=C(/C=C/c1csc(-c2ccccc2)n1)NCc1ccc(C(=O)NCc2ccccc2)cc1,> 100,> 100,> 100,> 100,> 100,> 100,> 100,> 100,> 100,> 100,> 100,> 100,88.7,60.5,> 100,85.8,> 100
CC1=NN(C(=O)CSc2nc3ccc(I)cc3c(=O)n2Cc2ccccc2)C(=O)C1,> 100,> 100,92.5,> 100,> 100,21.2,58.3,87.8,69.5,63.9,> 100,55.2,> 100,85.3,74,> 100,67.4
Nc1nc(Cl)c(N)c(NCC2(CO)CC(CCCc3ccccc3)C2)n1 (stereo not given),> 100,> 100,45.6,98.7,> 100,19.6,63.1,> 100,> 55.3,> 59.5,> 100,15.4,> 100,67.7,> 100,> 100,> 100
CCN(CC)CCNCc1cc(Cl)cc2c1OCOC2,> 10,> 10,> 10,> 10,> 10,> 10,> 10,> 10,> 10,> 10,> 10,> 10,> 10,> 10,> 10,> 10,> 10
Brc1ccc(-c2cn3ccncc3n2)cc1,> 100,> 100,> 100,> 100,> 100,> 100,> 100,> 100,> 100,> 100,> 100,> 100,> 100,> 100,> 100,> 100,> 100
CC(C)(CC(O)C#N)/[N+]([O-])=[N+](\[O-])C(C)(C)CC(O)C#N (stereo not given),> 100,30.4,31.7,42.7,> 100,35.4,> 100,81,83.1,> 100,> 100,> 100,> 100,76.2,49.5,96,> 100
O=C(O)CNC(=O)c1c2ccccc2nc2ccccc12,> 100,> 100,> 100,> 100,> 100,> 100,> 100,> 100,> 100,> 100,> 100,> 100,> 100,> 100,> 100,> 100,> 100
N#C/C(=C\c1c[nH]c2ccccc12)C(=O)c1ccc(O)c(O)c1,98.7,> 100,> 67.7,> 100,> 100,> 93,70.1,> 100,> 100,67,> 100,> 100,98.1,> 100,> 31.6,98.2,> 100
C/C(=C/CC[C@]1(CO)CC[C@]2(CO)[C@H](CC[C@@H]3[C@@]4(C)CC[C@H](OC5OCC(O)C(O)C5OC5OC(CO)C(O)C(O)C5O)C(C)(C)[C@@H]4CC[C@]32C)[C@H]1O)CO (stereo not given in full),> 100,> 100,> 100,> 100,> 100,> 100,> 100,> 100,> 100,> 100,> 100,> 100,> 100,> 100,> 100,> 100,> 100
COc1cc([C@@H]2c3cc(O)c(OC)cc3C=C(C(N)=O)[C@H]2C(N)=O)ccc1O,> 100,> 100,> 100,> 100,> 100,> 100,> 100,–,> 100,> 100,> 100,> 100,> 100,> 100,> 100,–,> 100
CCOc1ccc(-n2nnc3c(N)nc(N)nc32)cc1,> 100,> 100,> 100,> 100,> 100,> 100,> 100,> 100,–,> 100,> 100,> 100,> 100,> 100,> 100,> 100,> 100
OC1(c2ccccc2)CSC2=Nc3ccccc3C3CCN1N23 (stereo not given),74.3,72.6,32.3,36.9,> 100,40.5,63.9,> 100,58.5,33.8,11.3,35.9,37.4,25.5,55.4,43.2,28.1
CCOC(=O)c1ccc(C(=O)C(C(C)=O)C(=O)OC(C)(C)C)[nH]1 (stereo not given),> 100,> 100,> 100,> 100,> 100,> 100,> 100,> 100,> 100,> 100,> 100,> 100,> 100,> 100,> 100,–,> 100
O=C1NC(=S)N(c2ccccc2)C1=O,> 100,> 100,> 100,> 100,> 100,> 100,> 100,> 100,> 100,> 100,> 100,> 100,> 100,> 100,> 100,> 100,> 100
C[C@H]1C=C2[C@@H]3CC(C)(C(=O)O)CC[C@]3(C)CC[C@]2(C)[C@]2(C)CC[C@H]3C(C)(C)[C@@H](OC(=O)c4cccc5c(=O)c6ccccc6[nH]c45)CC[C@]3(C)[C@@H]12 (stereo not given in full),> 100,> 100,> 100,> 100,> 100,> 100,> 100,> 100,> 100,> 100,> 100,> 100,> 100,> 100,> 100,> 100,> 100
O=C(CSC1=NCCN1)Nc1ccccc1,> 100,> 100,–,39.2,> 100,38.7,73.6,> 100,93.3,> 100,62.6,–,> 100,43.5,> 100,43.9,39.2
OC(c1ccc(-c2ccccc2)cc1)C(F)(F)c1nc2ccccc2o1 (stereo not given),> 100,61.2,> 100,> 100,> 100,> 100,> 100,50.4,> 100,> 100,> 100,> 100,> 100,> 100,> 100,> 100,> 100
Cc1ccc(/C=C2\CCCC(CN3CCCCC3)C2=O)cc1 (stereo not given),33.1,3.19,3.25,3.29,15.9,3.22,42.5,3.62,4.07,30.9,3.22,17.4,29.6,17.7,> 100,7.44,27.3
COc1ccc(-n2cnc3c(NC(CCSC)C(=O)O)ncnc32)cc1 (stereo not given),> 100,> 100,> 100,> 100,> 100,> 100,> 100,> 100,> 100,> 100,> 100,> 100,> 100,> 100,> 100,> 100,> 100
CC(C)(C)OC(=O)NCCC1CN(C(=O)c2ccccc2)c2ccccc21 (stereo not given),> 100,> 100,40,–,56.3,64.2,57.5,> 100,> 100,> 100,91.2,32,> 100,75.2,> 100,> 100,> 100
COC(=O)c1c(OC(C)=O)ccc2c1c1c(OC(C)=O)c3ccccc3c(OC(C)=O)c1n2Cc1ccccc1,34.2,27.9,15.6,–,> 50,3.4,46.6,29.6,19.4,10.9,33.5,9.47,> 50,6.61,> 50,> 50,17.3
